Laboratory results reported in PubChem BioAssay (NCI).
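Where inhibition never reached the appropriate level, the endpoint shown equals the highest concentration tested. Otherwise, values were interpolated linearly from a five-concentration, 48-hour dose response in 96-well plates. TGI denotes the concentration required for complete inhibition of growth.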

How the values were obtained:
Assay in all cases: NCI tumour cell line growth inhibition, 48 h
MOLT-4 leukemia = tested on: MOLT-4 leukemia
T-47D breast = tested on: T-47D breast
U251 CNS = tested on: U251 CNS
SK-MEL-5 melanoma = tested on: SK-MEL-5 melanoma
SNB-75 CNS = tested on: SNB-75 CNS
EKVX NSCLC = tested on: EKVX NSCLC
IGROV1 ovarian = tested on: IGROV1 ovarian
UACC-62 melanoma = tested on: UACC-62 melanoma
MALME-3M melanoma = tested on: MALME-3M melanoma
MDA-MB-231 breast = tested on: MDA-MB-231 breast
NCI-H460 lung = tested on: NCI-H460 lung
SW-620 colon = tested on: SW-620 colon
PC-3 prostate = tested on: PC-3 prostate
RPMI-8226 leukemia = tested on: RPMI-8226 leukemia
SK-OV-3 ovarian = tested on: SK-OV-3 ovarian
NCI-H226 lung = tested on: NCI-H226 lung
UACC-257 melanoma = tested on: UACC-257 melanoma
OVCAR-4 ovarian = tested on: OVCAR-4 ovarian
ACHN renal = tested on: ACHN renal
HCT-15 colon = tested on: HCT-15 colon
SF-295 CNS = tested on: SF-295 CNS
MDA-MB-435 = tested on: MDA-MB-435
OVCAR-5 ovarian = tested on: OVCAR-5 ovarian
NCI-H522 lung = tested on: NCI-H522 lung
786-0 renal = tested on: 786-0 renal
A549 NSCLC = tested on: A549 NSCLC
DU-145 prostate = tested on: DU-145 prostate
SR leukemia = tested on: SR leukemia
SF-268 CNS = tested on: SF-268 CNS
UO-31 renal = tested on: UO-31 renal
CAKI-1 renal = tested on: CAKI-1 renal
NCI-H23 lung = tested on: NCI-H23 lung
SK-MEL-2 melanoma = tested on: SK-MEL-2 melanoma
OVCAR-3 ovarian = tested on: OVCAR-3 ovarian
SF-539 CNS = tested on: SF-539 CNS
LOX IMVI melanoma = tested on: LOX IMVI melanoma
SK-MEL-28 melanoma = tested on: SK-MEL-28 melanoma
M14 melanoma = tested on: M14 melanoma
NCI/ADR-RES ovarian = tested on: NCI/ADR-RES ovarian
MCF7 breast = tested on: MCF7 breast
HL-60(TB) leukemia = tested on: HL-60(TB) leukemia
OVCAR-8 ovarian = tested on: OVCAR-8 ovarian
MDA-N = tested on: MDA-N
HOP-62 NSCLC = tested on: HOP-62 NSCLC
SNB-78 CNS = tested on: SNB-78 CNS
SNB-19 CNS = tested on: SNB-19 CNS
DMS 114 small cell lung = tested on: DMS 114 small cell lung
HT29 colon = tested on: HT29 colon
HCT-116 colon = tested on: HCT-116 colon
DMS 273 small cell lung = tested on: DMS 273 small cell lung
SN12C renal = tested on: SN12C renal
CCRF-CEM leukemia = tested on: CCRF-CEM leukemia
KM12 colon = tested on: KM12 colon
DLD-1 colon = tested on: DLD-1 colon
HOP-92 NSCLC = tested on: HOP-92 NSCLC
RXF 393 renal = tested on: RXF 393 renal
HCC-2998 colon = tested on: HCC-2998 colon
K-562 leukemia = tested on: K-562 leukemia
RXF-631 renal = tested on: RXF-631 renal
HS 578T breast = tested on: HS 578T breast
TK-10 renal = tested on: TK-10 renal
A498 renal = tested on: A498 renal
COLO 205 colon = tested on: COLO 205 colon
HOP-18 NSCLC = tested on: HOP-18 NSCLC
M19-MEL melanoma = tested on: M19-MEL melanoma

Measured: TGI

Cc1nc2c(n1-c1ccc(Br)cc1)C(=O)c1ccccc1C2=O
> 39.4 µM: SNB-19 CNS
> 65.2 µM: SF-539 CNS
> 70.1 µM: OVCAR-8 ovarian
66 µM: HOP-92 NSCLC
> 71.1 µM: 786-0 renal
> 79.2 µM: NCI-H522 lung
51 µM: PC-3 prostate
> 59.6 µM: SF-295 CNS
69.9 µM: RXF 393 renal
23.3 µM: MDA-MB-435
> 40.9 µM: NCI-H460 lung
> 62.1 µM: SNB-75 CNS
50 µM: HS 578T breast
31.3 µM: OVCAR-3 ovarian
> 85.1 µM: UACC-62 melanoma
> 67.2 µM: MALME-3M melanoma
> 43.6 µM: U251 CNS
> 74 µM: HCT-116 colon
> 100 µM: MOLT-4 leukemia | T-47D breast | SK-MEL-5 melanoma | EKVX NSCLC | MDA-MB-231 breast | SW-620 colon | RPMI-8226 leukemia | NCI-H226 lung | UACC-257 melanoma | OVCAR-4 ovarian | ACHN renal | HCT-15 colon | OVCAR-5 ovarian | A549 NSCLC | DU-145 prostate | SR leukemia | SF-268 CNS | CAKI-1 renal | NCI-H23 lung | SK-MEL-2 melanoma | LOX IMVI melanoma | SK-MEL-28 melanoma | M14 melanoma | NCI/ADR-RES ovarian | MCF7 breast | MDA-N | HOP-62 NSCLC | SNB-78 CNS | DMS 114 small cell lung | HT29 colon | DMS 273 small cell lung | SN12C renal | CCRF-CEM leukemia | KM12 colon | DLD-1 colon | HCC-2998 colon | K-562 leukemia | RXF-631 renal | TK-10 renal | A498 renal | COLO 205 colon
18 µM: HL-60(TB) leukemia
> 40.6 µM: UO-31 renal
97 µM: SK-OV-3 ovarian
> 64.4 µM: IGROV1 ovarian

CC(C)(C)c1ccc2c(c1)S(=O)(=O)Nc1cccc(c1)NS(=O)(=O)c1cc(C(C)(C)C)ccc1OCCOCCO2
> 100 µM: MOLT-4 leukemia | U251 CNS | SK-MEL-5 melanoma | SNB-75 CNS | EKVX NSCLC | IGROV1 ovarian | UACC-62 melanoma | MALME-3M melanoma | HOP-18 NSCLC | NCI-H460 lung | SW-620 colon | RPMI-8226 leukemia | SK-OV-3 ovarian | NCI-H226 lung | UACC-257 melanoma | OVCAR-4 ovarian | ACHN renal | HCT-15 colon | SF-295 CNS | OVCAR-5 ovarian | 786-0 renal | A549 NSCLC | M19-MEL melanoma | SF-268 CNS | UO-31 renal | CAKI-1 renal | NCI-H23 lung | SK-MEL-2 melanoma | OVCAR-3 ovarian | SF-539 CNS | LOX IMVI melanoma | SK-MEL-28 melanoma | M14 melanoma | OVCAR-8 ovarian | HOP-62 NSCLC | SNB-78 CNS | SNB-19 CNS | DMS 114 small cell lung | HT29 colon | HCT-116 colon | DMS 273 small cell lung | SN12C renal | KM12 colon | DLD-1 colon | HOP-92 NSCLC | RXF 393 renal | HCC-2998 colon | K-562 leukemia | RXF-631 renal | TK-10 renal | A498 renal | COLO 205 colon
